The results in this text go back to patent US20060264460A1 (Wyeth, priority 2005, published 2006).

In this experiment the target is T1, human Cot/Tpl2 kinase (Homo sapiens, UniProt P41279).
T1 construct: human Cot/Tpl2 kinase construct encoding residues 30-398; 6His (N); made in house; host or cells: Sf9 insect cells, baculovirus system (BD Biosciences)
T1 sequence (P41279 30-398): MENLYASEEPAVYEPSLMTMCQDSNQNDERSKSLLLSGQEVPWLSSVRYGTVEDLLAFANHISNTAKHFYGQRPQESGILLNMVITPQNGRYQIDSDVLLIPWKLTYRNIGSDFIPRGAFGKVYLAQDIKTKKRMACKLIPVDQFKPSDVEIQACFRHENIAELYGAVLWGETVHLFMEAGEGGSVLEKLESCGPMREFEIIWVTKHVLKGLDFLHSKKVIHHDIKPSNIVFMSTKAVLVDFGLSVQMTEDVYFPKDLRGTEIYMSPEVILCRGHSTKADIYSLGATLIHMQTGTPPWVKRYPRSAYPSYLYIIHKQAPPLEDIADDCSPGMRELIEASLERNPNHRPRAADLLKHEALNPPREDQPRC
Briefly: Tpl2/Cot kinase assay: GST-MEK1 phosphorylation detected by ELISA (DELFIA Eu). Type of experiment: biochemical. The settings on record: Table 2; Tpl2/Cot kinase, GST-MEK1 substrate, 50 uM ATP. The method in brief: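 His-tagged human Tpl2 from Sf9 cells, Ni-affinity and size-exclusion purified (monomer). 0.4 nM Tpl2 with 35 nM GST-MEK1, 50 uM ATP, MOPS pH 7.2, 1% DMSO, 1 h at 30° C; EDTA stop. MEK1 Ser217/221 phosphorylation detected by anti-phospho-MEK1 and Eu-labelled secondary ELISA; IC50 fitted.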
On the technique in general: In an ELISA, binding on a coated surface is turned into a signal by an enzyme label.
For the molecule `N#Cc1cnc2ccc(NCCN3CCOCC3)cc2c1Nc1cccc(C(F)(F)F)c1` [Example 342], the IC50 (commonly the concentration that gives 50% inhibition) was more than 10000 nM.
Next, `Cn1cc(CNc2ccc3ncc(C#N)c(Nc4ccc(F)c(F)c4)c3c2)ccc1=O` [Example 343]: 1040 nM.
Next, `N#Cc1cnc2ccc(NCc3ccc(OCCN4CCOCC4)nc3)cc2c1Nc1ccc(F)c(F)c1` [Example 344]: 1480 nM.
The molecule `N#Cc1cnc2ccc(NCc3ccc(=O)n(CCN4CCOCC4)c3)cc2c1Nc1ccc(F)c(F)c1` [Example 345] displayed an IC50 of 1700 nM.
Next, `N#Cc1cnc2ccc(NCc3ccc4c(c3)OCO4)cc2c1Nc1cccc(Cl)c1` [Example 346]: 600 nM; `CN(C)CCCOc1ccc(CNc2ccc3ncc(C#N)c(Nc4cccc(Cl)c4)c3c2)cc1` [Example 347]: 600 nM.
Next, `N#Cc1cnc2ccc(NCc3cccnc3)cc2c1Nc1cccc(Cl)c1` [Example 348]: 90 nM; `CS(=O)(=O)c1ccc(CNc2ccc3ncc(C#N)c(Nc4cccc(Cl)c4)c3c2)cc1` [Example 349]: 370 nM.
Under `N#Cc1cnc2ccc(NCCN3CCOCC3)cc2c1Nc1cccc(Cl)c1` [Example 350] stands 690 nM.
Molecule `N#Cc1cnc2ccc(NCCN3CCOCC3)cc2c1Nc1cccc(F)c1` [Example 351] showed a 50% inhibitory concentration (IC50) of 1900 nM.
Take `CC(C)c1cccc(Nc2c(C#N)cnc3ccc(NCCN4CCOCC4)cc23)c1` [Example 352]: the IC50 is more than 10000 nM.
Next, `N#Cc1cnc2ccc(NCCN3CCOCC3)cc2c1Nc1ccc(Sc2ccccc2)c(Cl)c1` [Example 353]: 470 nM.
On to `CN(C)c1cccc(Nc2c(C#N)cnc3ccc(NCCN4CCOCC4)cc23)c1` [Example 354], for which the IC50 is more than 10000 nM.
In the case of `N#Cc1cnc2ccc(NCCN3CCOCC3)cc2c1Nc1ccc(Br)cc1` [Example 355], the IC50 was more than 10000 nM.
Molecule `N#Cc1cnc2ccc(NCCN3CCOCC3)cc2c1Nc1ccc2[nH]ccc2c1` [Example 356] gave an IC50 of more than 10000 nM.
Next, `C#Cc1cccc(Nc2c(C#N)cnc3ccc(NCCN4CCOCC4)cc23)c1` [Example 357]: 1300 nM; `N#Cc1cnc2ccc(NCCN3CCOCC3)cc2c1Sc1ccc(F)c(Cl)c1` [Example 358]: more than 40000 nM; `CN(C)C(=O)c1cc(N)cc2c(Nc3cccc(Cl)c3)c(C#N)cnc12` [Example 359]: 8400 nM.
Next, `N#Cc1cnc2ccc(NCc3ccccn3)cc2c1NC1CCCCC1` [Example 360]: 210 nM; `N#Cc1cnc2ccc(NCc3ccccn3)cc2c1Nc1ccccc1` [Example 361]: 250 nM; `N#Cc1cnc2c(Br)cc([N+](=O)[O-])cc2c1Nc1cccc(Cl)c1` [Example 362]: more than 10000 nM.
Turning to `N#Cc1cnc2ccc(N)cc2c1NC1CCN(Cc2ccccc2)CC1` [Example 363], the IC50 is more than 40000 nM.
Next, `CN1CCC(Nc2ccc3ncc(C#N)c(Nc4ccc(F)c(Cl)c4)c3c2)CC1` [Example 364]: more than 10000 nM; `N#Cc1cnc2c(Br)cc(N)cc2c1Nc1cccc(Cl)c1` [Example 365]: 390 nM; `CC(C)N1CCC(Nc2ccc3ncc(C#N)c(Nc4ccc(F)c(Cl)c4)c3c2)CC1` [Example 366]: 25500 nM.
Under `N#Cc1cnc2ccc(NCCN3CCOCC3)cc2c1NC1CCN(Cc2ccccc2)CC1` [Example 367] stands more than 40000 nM.
As for `CCc1nc(C)c(CNc2ccc3ncc(C#N)c(Nc4ccc(F)c(Cl)c4)c3c2)[nH]1` [Example 369], the IC50 came out at 640 nM.
Next, `Cc1c(CNc2ccc3ncc(C#N)c(Nc4ccc(F)c(Cl)c4)c3c2)ncn1C` [Example 370]: 3.2 nM; `COCCOc1ccc(CNc2ccc3ncc(C#N)c(Nc4ccc(F)c(Cl)c4)c3c2)cc1Br` [Example 371]: 380 nM.
Next, `N#Cc1cnc2c(Br)cc(NCCN3CCOCC3)cc2c1Nc1cccc(Cl)c1` [Example 372]: 420 nM; `Cc1c(CNc2ccc3ncc(C#N)c(Nc4ccc(F)c(Cl)c4)c3c2)ncn1CCN1CCOCC1` [Example 373]: 14 nM; `N#Cc1cnc2c(Br)cc(NCc3cccnc3)cc2c1Nc1cccc(Cl)c1` [Example 374]: 36 nM.
Under `CN(C)C(=O)c1cc(NCc2cccnc2)cc2c(Nc3cccc(Cl)c3)c(C#N)cnc12` [Example 376] stands 400 nM; under `CCN1CCC(Nc2ccc3ncc(C#N)c(Nc4ccc(F)c(Cl)c4)c3c2)C(C)C1` (stereo not drawn) [Example 377], more than 40000 nM; under `N#Cc1cnc2ccc(NC3CCN(Cc4ccccc4)CC3)cc2c1Nc1ccc(F)c(Cl)c1` [Example 378], 1700 nM.
For the molecule `CC(C)(C)OC(=O)N1CCC(Nc2ccc3ncc(C#N)c(Nc4ccc(F)c(Cl)c4)c3c2)CC1` [Example 379], the IC50 was more than 40000 nM.
With `COc1cc(NCc2cccnc2)cc2c(Nc3ccc(F)c(Cl)c3)c(C#N)cnc12` [Example 380], the midpoint of inhibition, the IC50, lay at 1100 nM.
Under `CC(C)(C)OC(=O)COc1ccc(CNc2ccc3ncc(C#N)c(Nc4ccc(F)c(Cl)c4)c3c2)cc1Br` [Example 381] stands more than 40000 nM.
Next, `N#Cc1cnc2ccc(NCc3cc[nH]n3)cc2c1Nc1ccc(F)c(Cl)c1` [Example 382]: 74 nM; `COc1cc(NCCN2CCOCC2)cc2c(Nc3ccc(F)c(Cl)c3)c(C#N)cnc12` [Example 383]: 5200 nM.
Next, `N#Cc1cnc2ccc(NCc3ccc[n+]([O-])c3)cc2c1Nc1ccc(F)c(Cl)c1` [Example 384]: 130 nM; `Cc1cc(CNc2ccc3ncc(C#N)c(Nc4ccc(F)c(Cl)c4)c3c2)n[nH]1` [Example 385]: 110 nM; `COc1cc(NCc2cccnc2)cc2c(Nc3ccc(C)c(O)c3)c(C#N)cnc12` [Example 386]: more than 40000 nM.
Molecule `CN(C)Cc1cc(NCCN2CCOCC2)cc2c(Nc3cccc(Br)c3)c(C#N)cnc12` [Example 387] gave an IC50 of more than 40000 nM.
Next, `Cc1ncn(C)c1CNc1ccc2ncc(C#N)c(Nc3ccc(F)c(Cl)c3)c2c1` [Example 388]: 200 nM; `Cn1cc(Cl)c(CNc2ccc3ncc(C#N)c(Nc4ccc(F)c(Cl)c4)c3c2)n1` [Example 389]: more than 40000 nM.
Take `N#Cc1cnc2ccc(N)cc2c1Nc1ccc(Cc2ccccc2)cc1` [Example 390]: 43 nM corresponded to half-maximal inhibition (IC50).
Next, `N#Cc1cnc2ccc(NCCN3CCOCC3)cc2c1Nc1ccc(Cc2ccccc2)cc1` [Example 391]: 26 nM; `Cc1cc2ncc(C#N)c(Nc3ccc(F)c(Cl)c3)c2cc1N` [Example 392]: more than 40000 nM.
`N#Cc1cnc2c(Br)cc(N)cc2c1Nc1ccc(F)c(Cl)c1` [Example 393]: the IC50 stood at 520 nM.
With `N#Cc1cnc2c(C(F)(F)F)cc(N)cc2c1Nc1ccc(F)c(Cl)c1` [Example 394], the IC50 is 5800 nM.
Next, `CN(C)C(=O)c1cc([N+](=O)[O-])cc2c(Nc3ccc(F)c(Cl)c3)c(C#N)cnc12` [Example 395]: more than 40000 nM.
Next, `CN(C)C(=O)c1cc(N)cc2c(Nc3ccc(F)c(Cl)c3)c(C#N)cnc12` [Example 396]: 6000 nM.
With `COC(=O)c1cccc(CNc2ccc3ncc(C#N)c(Nc4ccc(F)c(Cl)c4)c3c2)c1` [Example 397], the IC50 was 320 nM.
Next, `N#Cc1cnc2ccc(NCc3cccc(C(=O)O)c3)cc2c1Nc1ccc(F)c(Cl)c1` [Example 398]: 180 nM; `N#Cc1cnc2ccc(NCc3cccc(C(N)=O)c3)cc2c1Nc1ccc(F)c(Cl)c1` [Example 399]: 460 nM; `N#Cc1cnc2ccc(NCc3cnc[nH]3)cc2c1NC1CCCCCC1` [Example 400]: 490 nM.
For the molecule `CC(C)(C)Nc1c(C#N)cnc2ccc(NCc3cnc[nH]3)cc12` [Example 401], half-maximal inhibition (IC50) was put at 3100 nM.
In turn, `N#Cc1cnc2ccc(N)cc2c1NC1CCCC1` [Example 402] gave an IC50 of more than 40000 nM.
Under `CC(C)(C)Nc1c(C#N)cnc2ccc(NCc3cccc(C#N)c3)cc12` [Example 403] stands 11500 nM; under `CC(C)(C)Nc1c(C#N)cnc2ccc(NCc3ccn[nH]3)cc12` [Example 405], more than 40000 nM.
Under `CC(C)(C)Nc1c(C#N)cnc2ccc(NCc3cccc[n+]3[O-])cc12` [Example 406] stands 5400 nM.
Next, `Cn1ccnc1CNc1ccc2ncc(C#N)c(NC(C)(C)C)c2c1` [Example 407]: 5100 nM.
As for `CC(C)(C)Nc1c(C#N)cnc2ccc(NCc3ccc(S(N)(=O)=O)cc3)cc12` [Example 408], 21900 nM corresponded to half-maximal inhibition (IC50).
Next, `N#Cc1cnc2c(Cl)cc(N)cc2c1Nc1ccc(F)c(Cl)c1` [Example 409]: 920 nM; `N#Cc1cnc2ccc(NCc3cccc[n+]3[O-])cc2c1NC1CCCC1` [Example 410]: 1300 nM; `N#Cc1cnc2ccc(NCc3ccc(S(N)(=O)=O)cc3)cc2c1NC1CCCC1` [Example 411]: 7300 nM.
Next, `N#Cc1cnc2ccc(NCc3ccn[nH]3)cc2c1NC1CCCC1` [Example 413]: 1600 nM; `CS(=O)(=O)c1cccc(CNc2ccc3ncc(C#N)c(NC4CCCC4)c3c2)c1` [Example 414]: 2900 nM; `N#Cc1cnc2ccc(NCc3ccccc3)cc2c1NC1CCCC1` [Example 415]: 21300 nM.
Under `N#Cc1ccccc1CNc1ccc2ncc(C#N)c(NC3CCCC3)c2c1` [Example 416] stands 1700 nM; under `N#Cc1cnc2ccc(NCc3cnc[nH]3)cc2c1NC1CCCC1` [Example 417], 300 nM; under `N#Cc1cnc2ccc(NCc3cccnc3)cc2c1NC1CCCC1` [Example 418], 2600 nM.
Molecule `N#Cc1cnc2ccc(NCCN3CCOCC3)cc2c1NC1CCCC1` [Example 419] returned a 50% inhibitory concentration (IC50) of 19700 nM.
`N#Cc1cccc(CNc2ccc3ncc(C#N)c(NC4CCCC4)c3c2)c1` [Example 420]: the IC50 was determined as 2200 nM.
